Data taken from BindingDB's records for doi:10.1016/S0960-894X(01)81014-3 (1993).
Residues, ends and D or L forms follow the SMILES beside them. *: point of attachment. Adamantane1carbonyl = O=C(C12CC3CC(CC(C3)C1)C2)*

Assay: Compound was evaluated for binding affinity against Opioid receptor delta 1 binding assay: Inactive

CC[C@H](C)[C@H](NC(=O)[C@H](Cc1ccc(O)cc1)NC(=O)[C@@H]1CCCN1C(=O)[C@H](CCCCN)NC(=O)C12CC3CC(CC(C3)C1)C2)C(=O)N[C@@H](CC(C)C)C(=O)O [(S)-2-{(2S,3S)-2-[(S)-2-[((S)-1-{(S)-2-[(Adamantane-1-carbonyl)-amino]-6-amino-hexanoyl}-pyrrolidine-2-carbonyl)-amino]-3-(4-hydroxy-phenyl)-propionylamino]-3-methyl-pentanoylamino}-4-methyl-pentanoic acid] (Adamantane1carbonyl-KPYIL-OH)
Ki: > 100 µM
